In general, inhibition refers to the drop in the measured response relative to a control, in per cent.

Here are results for 18 compounds from patent US8455475B2 (Gruenenthal GmbH, priority 2009, dated 2013).

Assay [1] addresses T1, rat B1R (bradykinin receptor 1) (Rattus norvegicus, UniProt P97583).
T1 construct: expressed in transfected cells; host or cells: CHO K1 cells
T1 sequence (P97583 1-337): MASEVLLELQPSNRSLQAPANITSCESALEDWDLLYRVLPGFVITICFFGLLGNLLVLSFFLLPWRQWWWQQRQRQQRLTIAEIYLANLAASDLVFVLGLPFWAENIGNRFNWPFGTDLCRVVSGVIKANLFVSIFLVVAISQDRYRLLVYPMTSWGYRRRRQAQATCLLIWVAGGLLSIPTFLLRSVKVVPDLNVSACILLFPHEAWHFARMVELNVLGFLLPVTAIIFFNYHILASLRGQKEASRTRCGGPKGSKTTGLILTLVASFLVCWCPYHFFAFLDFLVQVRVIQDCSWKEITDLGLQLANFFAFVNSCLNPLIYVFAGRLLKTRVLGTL
In words: FLIPR Ca2+ assay (Fluo-4) on CHO K1 cells stably transfected with the B1R gene of the rat (rB1R cells): % inhibition at 10 μM / IC50, agonist Des-Arg9-bradykinin. Type of assay: cell-based. The conditions noted are these: CHO-K1, rat B1R. The method in brief:
(§1)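 Using a two-addition FLIPR protocol, compound (10 μM for % values; concentration series for IC50) was preincubated 10–20 min with Fluo-4-loaded B1R-expressing CHO K1 cells before EC80 agonist challenge. Suppression of Ca2+ inflow, read as peak fluorescence, is expressed relative to maximum achievable inhibition; duplicate/triplicate, ≥2 independent experiments.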

The target of assay [2] is T2, human B1R (bradykinin receptor 1) (Homo sapiens, UniProt P46663).
T2 construct: expressed in transfected cells; host or cells: CHO K1 cells
T2 sequence (P46663 1-353): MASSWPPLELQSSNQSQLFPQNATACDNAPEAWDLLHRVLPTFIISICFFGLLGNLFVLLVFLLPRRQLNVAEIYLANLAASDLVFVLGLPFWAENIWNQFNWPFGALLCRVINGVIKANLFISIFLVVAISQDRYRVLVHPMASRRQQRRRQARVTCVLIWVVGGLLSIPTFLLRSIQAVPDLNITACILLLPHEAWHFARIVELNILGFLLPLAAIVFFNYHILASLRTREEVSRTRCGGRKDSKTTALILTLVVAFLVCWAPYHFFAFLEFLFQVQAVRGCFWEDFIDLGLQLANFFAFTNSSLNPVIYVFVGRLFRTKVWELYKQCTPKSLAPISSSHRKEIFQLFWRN
In words: FLIPR Ca2+ assay (Fluo-4) on CHO K1 cells stably transfected with the human B1R gene (hB1R cells): % inhibition at 10 μM / IC50, agonist Lys-Des-Arg9-bradykinin. The format is cell-based. The following applies: CHO-K1, human B1R. The method in brief: as §1

Structures can show the parent of a compound that is named as a salt.

As to `O=C(N[C@@H]1CCc2ccc(C(=O)N3CCC4(CCC(C(=O)N[C@@H]5CN6CCC5CC6)CC4)CC3)cc21)c1ccccc1Cl` [Example H-62, N-[(5S)-1-Azabicyclo[2.2.2]octan-5-yl]-3-[(3R)-3-[(2-chloro-benzoyl)amino]-2,3-dihydro-1H-indene-5-carbonyl]-3-azaspiro[5.5]undecane-9-carboxylic acid amide], the inhibition at 10 µM amounted to 102% in assay [1] and 30% in assay [2].
The corresponding values for `Cc1cc(N2CCC3(CCN(C(=O)c4ccc5c(c4)[C@H](NC(=O)c4ccccc4Cl)CC5)C3)CC2)cc(C)n1` [Example H-111, 2-Chloro-N-[(1R)-6-[8-(2,6-dimethyl-pyridin-4-yl)-3,8-diazaspiro[4.5]decane-3-carbonyl]-2,3-dihydro-1H-inden-1-yl]-benzamide hydrochloride] are 102% and 100%.
Consider `O=C(NC1CCc2ccc(C(=O)N3CCC4(CC3)CCN(c3ccncc3)CC4)cc21)c1c(Cl)cccc1C(F)(F)F` (stereo not drawn) [IND_CC-204, 2-Chloro-N-[6-(9-pyridin-4-yl-3,9-diazaspiro[5.5]undecane-3-carbonyl)-2,3-dihydro-1H-inden-1-yl]-6-(trifluoromethyl)-benzamide], for which the values for the inhibition at 10 µM in assay [1] and in assay [2] were 102% and 99%, respectively.
For the compound `CC1(C)CC(NC(=O)c2c(Cl)cccc2C(F)(F)F)c2cc(C(=O)N3CCC4(CC3)CCN(c3ccncc3)CC4)ccc21` (stereo not drawn) [IND_CC-243, 2-Chloro-N-[3,3-dimethyl-6-(3-pyridin-4-yl-3,9-diazaspiro[5.5]undecane-9-carbonyl)-1,2-dihydro-inden-1-yl]-6-(trifluoromethyl)-benzamide], the inhibition at 10 µM in assay [1] is 99%; in assay [2] it was 100%.
On to `Cc1cc(OC(F)(F)F)ccc1C(=O)N[C@@H]1CCc2ccc(C(=O)N3CCC4(CCN(c5ccncc5)CC4)C3)cc21` [Example H-74, 2-Methyl-N-[(1R)-6-(8-pyridin-4-yl-3,8-diazaspiro[4.5]decane-3-carbonyl)-2,3-dihydro-1H-inden-1-yl]-4-(trifluoromethyloxy)-benzamide], for which the values for the inhibition at 10 µM in assay [1] and in assay [2] were 100% and 94%, respectively.
For `CN(C(=O)c1c(Cl)cccc1Cl)C1CCc2ccc(C(=O)N3CCC4(CC3)CCN(c3ccncc3)CC4)cc21` (stereo not drawn) [IND_CC-268, 2,6-Dichloro-N-methyl-N-[6-(9-pyridin-4-yl-3,9-diazaspiro[5.5]undecane-3-carbonyl)-2,3-dihydro-1H-inden-1-yl]-benzamide], the inhibition at 10 µM in assay [1] turned out to be 108%; in assay [2] it was 99%.
The corresponding values for `CN(C(=O)c1cccc(C(F)(F)F)c1Cl)C1CCc2ccc(C(=O)N3CCC4(CC3)CCN(c3ccncc3)CC4)cc21` (stereo not drawn) [IND_CC-225, 2-Chloro-N-methyl-N-[6-(9-pyridin-4-yl-3,9-diazaspiro[5.5]undecane-3-carbonyl)-2,3-dihydro-1H-inden-1-yl]-3-(trifluoromethyl)-benzamide] are 103% and 71%.
In the case of `O=C(N[C@@H]1CCOc2cc(F)c(C(=O)N3CCC4(CCN(c5ccncc5)CC4)C3)cc21)c1ccccc1Cl` [Example H-65, 2-Chloro-N-[(4R)-7-fluoro-6-(8-pyridin-4-yl-3,8-diazaspiro[4.5]decane-3-carbonyl)-3,4-dihydro-2H-chromen-4-yl]-benzamide], the inhibition at 10 µM is 105% in assay [1] and 100% in assay [2].
For the compound `O=C(N[C@@H]1CCOc2ccc(C(=O)N3CCC4(CCN(c5ccncc5)CC4)C3)cc21)c1ccccc1Cl` [Example H-67, 2-Chloro-N-[(4R)-6-(8-pyridin-4-yl-3,8-diazaspiro[4.5]decane-3-carbonyl)-3,4-dihydro-2H-chromen-4-yl]-benzamide], the inhibition at 10 µM in assay [1] was determined as 102%; in assay [2], 100%.
With `CC(C)CC(=O)N[C@@H]1CCc2ccc(C(=O)N3CCC4(CCN(c5ccncc5)CC4)C3)cc21` [Example H-143, 3-Methyl-N-[(1R)-6-(8-pyridin-4-yl-3,8-diazaspiro[4.5]decane-3-carbonyl)-2,3-dihydro-1H-inden-1-yl]-butyramide], the inhibition at 10 µM in assay [1] stood at 105%; in assay [2], 100%.
For the compound `O=C(NC1CCc2ccc(C(=O)N3CCC4(CC3)CCN(c3ccncc3)CC4)cc21)c1cc(F)ccc1Cl` (stereo not drawn) [IND_CC-220, 2-Chloro-5-fluoro-N-[6-(9-pyridin-4-yl-3,9-diazaspiro[5.5]undecane-3-carbonyl)-2,3-dihydro-1H-inden-1-yl]-benzamide], the inhibition at 10 µM in assay [1] turned out to be 104%; in assay [2] it was 100%.
Turning to `Cc1nc[nH]c1CN1CCC2(CC1)CCN(C(=O)c1ccc3c(c1)C(NC(=O)c1ccccc1Cl)CC3)C2` (stereo not drawn) [IND_CC-553, 2-Chloro-N-[6-[8-[(5-methyl-3H-imidazol-4-yl)-methyl]-2,8-diazaspiro[4.5]decane-2-carbonyl]-2,3-dihydro-1H-inden-1-yl]-benzamide], the inhibition at 10 µM in assay [1] was 90%; in assay [2], -2%.
As to `O=C(c1ccc2c(c1)[C@H](NS(=O)(=O)Cc1ccccc1Cl)CC2)N1CCC2(CCN(c3ccncc3)CC2)C1` [Example H-150, 1-(2-Chlorophenyl)-N-[(1R)-6-(8-pyridin-4-yl-3,8-diazaspiro[4.5]decane-3-carbonyl)-2,3-dihydro-1H-inden-1-yl]-methanesulfonic acid amide], the inhibition at 10 µM in assay [1] worked out at 100%; in assay [2], 97%.
The corresponding values for `O=C(NC1CCCCc2ccc(C(=O)N3CCC4(CC3)CCN(c3ccncc3)CC4)cc21)c1ccccc1Cl` (stereo not drawn) [Ind_CC-120, 2-chloro-N-[3-(9-pyridin-4-yl-3,9-diazaspiro[5.5]undecane-3-carbonyl)-6,7,8,9-tetrahydro-5H-benzocyclohepten-5-yl]-benzamide] are 99% and 56%.
For the compound `Cc1ccccc1CC(=O)N[C@@H]1CCc2ccc(C(=O)N3CCC4(CCN(c5ccncc5)CC4)C3)cc21` [Example H-154, 2-(o-Tolyl)-N-[(1R)-6-(8-pyridin-4-yl-3,8-diazaspiro[4.5]decane-3-carbonyl)-2,3-dihydro-1H-inden-1-yl]-acetamide], the inhibition at 10 µM is 105% in assay [1] and 99% in assay [2].
Regarding `O=C(c1ccc2c(c1)C(NS(=O)(=O)Cc1ccccc1C(F)(F)F)CC2)N1CCC2(CC1)CCN(c1ccncc1)C2` (stereo not drawn) [IND_CC-237, N-[6-(2-Pyridin-4-yl-2,8-diazaspiro[4.5]decane-8-carbonyl)-2,3-dihydro-1H-inden-1-yl]-1-[2-(trifluoromethyl)-phenyl]-methanesulfonic acid amide], the results for the inhibition at 10 µM in assay [1] and in assay [2] were 98% and 100%, respectively.
The corresponding values for `CC1(C)Cc2ccc(C(=O)N3CCC4(CC3)CCN(c3ccncc3)CC4)cc2C1NC(=O)c1cc(F)c(F)cc1Cl` (stereo not drawn) [IND_CC-231, 2-Chloro-N-[2,2-dimethyl-6-(9-pyridin-4-yl-3,9-diazaspiro[5.5]undecane-3-carbonyl)-1,3-dihydro-inden-1-yl]-4,5-difluoro-benzamide] are 102% and 100%.
Regarding `O=C(c1ccc2c(c1)[C@H](NS(=O)(=O)c1ccccc1F)CC2)N1CCC2(CCN(c3ccncc3)CC2)C1` [Example H-116, 2-Fluoro-N-[(1R)-6-(8-pyridin-4-yl-3,8-diazaspiro[4.5]decane-3-carbonyl)-2,3-dihydro-1H-inden-1-yl]-benzenesulfonic acid amide], the inhibition at 10 µM is 101% in assay [1] and 100% in assay [2].
